Positions of bridges follow the written chain, without caps; N, C: chain ends. Residues, ends and D or L forms follow the SMILES beside them. Chains are numbered I, II in the order given. No end group written: not given here.
Assays:
[1] = physchem; conditions: for solubility at 90 min: pH 6; for solubility thermodynamic at 90 min: pH 7.4
Procedure: Measurement of Solubility
(§1) 75% aqueous solution of disodium hydrogen phosphate and 5.53% aqueous solution of citric acid were mixed, and respective buffers (pH 6.0 and 7.4) were prepared.
(§2) About 1 mg of a test product was measured, an isotonic buffer (0.5 mL) was added, and this was used as a test solution. The prepared test solution was shaken at room temperature for 90 min (shaking conditions: RECIPRO SHAKER SR-1N manufactured by TAITEC, Speed=8), centrifuged (15000 rpm, 5 min, room temperature), and the supernatant after centrifugation was used as a test solution.
(§3) About 1 mg of the test product was accurately measured, dissolved in 0.1% TFA water/acetonitrile=1/1, made the total amount 10 mL, and this was used as a standard solution of the test product.
(§4) The standard solution of the test product and the test solution were analyzed by HPLC (analysis conditions described in Table 59), and the solubility of the test product was calculated from the peak area ratio of the standard solution.
(§5) • column: ChemcoPack Quicksorb (4.6 mmφ×150 mm, 5 μm) manufactured by Chemco Scientific Co., Ltd. • mobile phase: SOLUTION A; 0.1% TFA water, SOLUTION B; 0.1% TFA acetonitrile solution • column temperature: room temperature • flow rate: 1 mL/min • detection wavelength: UV 254 nm, 230 nm (2 wavelength detection) • sample injection volume: 10 μL

[2] = biological target: ERAP1 (Homo sapiens, UniProt Q9NZ08); experiment: Time-course changes of trimming of N-terminal amino acid by ERAP1; assay type: biochemical; conditions: room temperature
Procedure: Time-Course Changes of Trimming of N-Terminal Amino Acid by ERAP1
30 μl of ERAP1 (2.0 mg/ml) in PBS buffer solution was added to 258 μl of Tris·HCl buffer. DMSO solution (12.0 μl) of 10 mM each peptide was added to the aforementioned ERAP1 solution, and the mixture was blended well and stood at room temperature. 1.0, 2.0, 4.0, 8.0 hr later, 50 μl of a sample was added to 150 μl of MeOH to terminate the reaction, 25 μl was injected into UFLC (analysis conditions shown below), and AUC of the object peptide was determined. […] Concentration of SOLUTION B was raised from 1.0% to 70% from 0.0 min to 5.0 min • 2. Concentration of SOLUTION B was raised from 1.0% to 50% from 0.0 min to 5.0 min • object peptide: […]

[3] = Measurement of solubility in isotonic buffer (pH 6.0 and 7.4); conditions: isotonic disodium hydrogen phosphate/citric acid buffer
Procedure: Measurement of Solubility
as §1, §2, §3, §4, §5

Sequence of ERAP1 (Q9NZ08 whole entry): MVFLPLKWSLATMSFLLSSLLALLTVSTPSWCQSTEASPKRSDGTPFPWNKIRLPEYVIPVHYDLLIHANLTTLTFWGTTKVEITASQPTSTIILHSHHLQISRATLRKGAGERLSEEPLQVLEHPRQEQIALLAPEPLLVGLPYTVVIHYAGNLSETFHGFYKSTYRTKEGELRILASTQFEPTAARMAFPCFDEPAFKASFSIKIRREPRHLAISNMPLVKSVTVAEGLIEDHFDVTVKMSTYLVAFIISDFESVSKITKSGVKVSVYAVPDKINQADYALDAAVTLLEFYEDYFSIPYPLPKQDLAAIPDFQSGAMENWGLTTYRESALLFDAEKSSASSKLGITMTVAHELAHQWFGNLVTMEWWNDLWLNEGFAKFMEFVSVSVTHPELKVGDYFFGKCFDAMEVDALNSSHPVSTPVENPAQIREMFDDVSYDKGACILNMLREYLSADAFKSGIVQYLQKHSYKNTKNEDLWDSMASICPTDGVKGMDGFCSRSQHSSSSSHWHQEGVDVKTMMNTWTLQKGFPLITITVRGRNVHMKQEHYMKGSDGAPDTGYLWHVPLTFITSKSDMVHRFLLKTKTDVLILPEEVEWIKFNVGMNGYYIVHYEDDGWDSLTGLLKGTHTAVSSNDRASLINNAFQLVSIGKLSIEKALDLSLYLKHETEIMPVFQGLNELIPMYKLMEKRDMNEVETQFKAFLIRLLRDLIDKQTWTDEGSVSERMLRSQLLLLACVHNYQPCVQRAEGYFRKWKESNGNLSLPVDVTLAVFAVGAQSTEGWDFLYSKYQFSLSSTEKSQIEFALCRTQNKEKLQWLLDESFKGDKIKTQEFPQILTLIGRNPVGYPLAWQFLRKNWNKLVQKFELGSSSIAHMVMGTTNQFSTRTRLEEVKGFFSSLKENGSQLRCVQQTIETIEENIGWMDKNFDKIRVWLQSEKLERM

solubility at 90 min [1] [µg/mL]	solubility thermodynamic at 90 min [1] [µg/mL]	Molecule	other results
> 1000	> 1000	CSCC[C@H](NC(=O)[C@@H](N)CCCNC(=N)N)C(=O)N[C@@H](Cc1ccccc1)C(=O)N1CCC[C@H]1C(=O)N[C@@H](CC(N)=O)C(=O)N[C@@H](C)C(=O)N1CCC[C@H]1C(=O)N[C@@H](Cc1ccc(O)cc1)C(=O)N[C@@H](CC(C)C)C(=O)O [SEQ ID NO: 2]	–
> 1000	> 1000	SLGEQQYSV [SEQ ID NO: 6]	–
> 1000	931	CNKRYFKLSHLQMHSRK [SEQ ID NO: 22]	–
> 1000	> 1000	ALLPAVPSL [SEQ ID NO: 5]	–
> 1000	556	CNKRYFKLSHLQMHSRKHTG [SEQ ID NO: 24]	–

Second part, the molecule before the results:

Molecule	solubility at 90 min [1] [µg/mL]	solubility thermodynamic at 90 min [1] [µg/mL]	other results
CSCC[C@H](NC(=O)[C@H](CCCNC(=N)N)NC(=O)[C@@H](N)CSSC[C@H](N)C(=O)N[C@@H](CO)C(=O)N[C@@H](CC(C)C)C(=O)NCC(=O)N[C@@H](CCC(=O)O)C(=O)N[C@@H](CCC(N)=O)C(=O)N[C@@H](CCC(N)=O)C(=O)N[C@@H](Cc1ccc(O)cc1)C(=O)N[C@@H](CO)C(=O)N[C@H](C(=O)O)C(C)C)C(=O)N[C@@H](Cc1ccccc1)C(=O)N1CCC[C@H]1C(=O)N[C@@H](CC(N)=O)C(=O)N[C@@H](C)C(=O)N1CCC[C@H]1C(=O)N[C@@H](Cc1ccc(O)cc1)C(=O)N[C@@H](CC(C)C)C(=O)O [formula (3)] (I: H-CRMFPNAPYL-OH / II: H-CSLGEQQYSV-OH; disulfide I:1-II:1)	> 1000	> 1000	–
CRVPGVAPTL [Example 4]	–	–	formation rate (%) of the peptide obtained by trimming, 1 hr later [2]: 59.1%; formation rate (%) of the peptide obtained by trimming, 2 hr later [2]: 57.5%; formation rate (%) of the peptide obtained by trimming, 4 hr later [2]: 30.1%; formation rate (%) of the peptide obtained by trimming, 8 hr later [2]: 7.80%
CYTWNQMNL [SEQ ID NO: 4]	–	–	solubility at 90 min ([3]; pH 6): 106 µg/mL; solubility thermodynamic at 90 min ([3]; pH 7.4): 167 µg/mL
CSLGEQQYSV [Example 5]	–	–	formation rate (%) of the peptide obtained by trimming, 1 hr later [2]: 77.6%; formation rate (%) of the peptide obtained by trimming, 2 hr later [2]: 72.8%; formation rate (%) of the peptide obtained by trimming, 4 hr later [2]: 46.0%; formation rate (%) of the peptide obtained by trimming, 8 hr later [2]: 7.90%
CSCC[C@H](NC(=O)[C@H](CCC(N)=O)NC(=O)[C@H](CC(C)C)NC(=O)[C@H](Cc1c[nH]cn1)NC(=O)[C@H](CO)NC(=O)[C@H](CC(C)C)NC(=O)[C@H](CCCCN)NC(=O)[C@H](Cc1ccccc1)NC(=O)[C@H](Cc1ccc(O)cc1)NC(=O)[C@H](CCCNC(=N)N)NC(=O)[C@H](CCCCN)NC(=O)[C@H](CC(N)=O)NC(=O)[C@@H](N)CSSC[C@H](N)C(=O)N[C@@H](CCCNC(=N)N)C(=O)N[C@@H](CCSC)C(=O)N[C@@H](Cc1ccccc1)C(=O)N1CCC[C@H]1C(=O)N[C@@H](CC(N)=O)C(=O)N[C@@H](C)C(=O)N1CCC[C@H]1C(=O)N[C@@H](Cc1ccc(O)cc1)C(=O)N[C@@H](CC(C)C)C(=O)O)C(=O)N[C@@H](Cc1c[nH]cn1)C(=O)N[C@@H](CO)C(=O)N[C@@H](CCCNC(=N)N)C(=O)N[C@@H](CCCCN)C(=O)O [formula (8)] (I: H-CNKRYFKLSHLQMHSRK-OH / II: H-CRMFPNAPYL-OH; disulfide I:1-II:1)	> 1000	789	–
CALLPAVPSL [Example 3]	–	–	formation rate (%) of the peptide obtained by trimming, 1 hr later [2]: 65.5%; formation rate (%) of the peptide obtained by trimming, 2 hr later [2]: 50.6%; formation rate (%) of the peptide obtained by trimming, 4 hr later [2]: 13.5%; formation rate (%) of the peptide obtained by trimming, 8 hr later [2]: 0%
CSCC[C@H](NC(=O)[C@H](CCC(N)=O)NC(=O)[C@H](CC(C)C)NC(=O)[C@H](Cc1c[nH]cn1)NC(=O)[C@H](CO)NC(=O)[C@H](CC(C)C)NC(=O)[C@H](CCCCN)NC(=O)[C@H](Cc1ccccc1)NC(=O)[C@H](Cc1ccc(O)cc1)NC(=O)[C@H](CCCNC(=N)N)NC(=O)[C@H](CCCCN)NC(=O)[C@H](CC(N)=O)NC(=O)[C@@H](N)CSSC[C@H](N)C(=O)N[C@@H](C)C(=O)N[C@@H](CC(C)C)C(=O)N[C@@H](CC(C)C)C(=O)N1CCC[C@H]1C(=O)N[C@@H](C)C(=O)N[C@H](C(=O)N1CCC[C@H]1C(=O)N[C@@H](CO)C(=O)N[C@@H](CC(C)C)C(=O)O)C(C)C)C(=O)N[C@@H](Cc1c[nH]cn1)C(=O)N[C@@H](CO)C(=O)N[C@@H](CCCNC(=N)N)C(=O)N[C@@H](CCCCN)C(=O)N[C@@H](Cc1c[nH]cn1)C(=O)N[C@H](C(=O)NCC(=O)O)[C@@H](C)O [formula (9)] (I: H-CNKRYFKLSHLQMHSRKHTG-OH / II: H-CALLPAVPSL-OH; disulfide I:1-II:1)	> 1000	565	–
CSCC[C@H](NC(=O)[C@H](CCC(N)=O)NC(=O)[C@H](CC(C)C)NC(=O)[C@H](Cc1c[nH]cn1)NC(=O)[C@H](CO)NC(=O)[C@H](CC(C)C)NC(=O)[C@H](CCCCN)NC(=O)[C@H](Cc1ccccc1)NC(=O)[C@H](Cc1ccc(O)cc1)NC(=O)[C@H](CCCNC(=N)N)NC(=O)[C@H](CCCCN)NC(=O)[C@H](CC(N)=O)NC(=O)[C@@H](N)CSSC[C@H](N)C(=O)N[C@@H](CCCNC(=N)N)C(=O)N[C@@H](CCSC)C(=O)N[C@@H](Cc1ccccc1)C(=O)N1CCC[C@H]1C(=O)N[C@@H](CC(N)=O)C(=O)N[C@@H](C)C(=O)N1CCC[C@H]1C(=O)N[C@@H](Cc1ccc(O)cc1)C(=O)N[C@@H](CC(C)C)C(=O)O)C(=O)N[C@@H](Cc1c[nH]cn1)C(=O)N[C@@H](CO)C(=O)N[C@@H](CCCNC(=N)N)C(=O)N[C@@H](CCCCN)C(=O)N[C@@H](Cc1c[nH]cn1)C(=O)N[C@H](C(=O)NCC(=O)O)[C@@H](C)O [formula (6)] (I: H-CNKRYFKLSHLQMHSRKHTG-OH / II: H-CRMFPNAPYL-OH; disulfide I:1-II:1)	> 1000	279	–
CSCC[C@H](NC(=O)[C@H](CCC(N)=O)NC(=O)[C@H](CC(N)=O)NC(=O)[C@H](Cc1c[nH]c2ccccc12)NC(=O)[C@@H](NC(=O)[C@H](Cc1ccc(O)cc1)NC(=O)[C@@H](N)CSSC[C@H](N)C(=O)N[C@@H](CCCNC(=N)N)C(=O)N[C@@H](CCSC)C(=O)N[C@@H](Cc1ccccc1)C(=O)N1CCC[C@H]1C(=O)N[C@@H](CC(N)=O)C(=O)N[C@@H](C)C(=O)N1CCC[C@H]1C(=O)N[C@@H](Cc1ccc(O)cc1)C(=O)N[C@@H](CC(C)C)C(=O)O)[C@@H](C)O)C(=O)N[C@@H](CC(N)=O)C(=O)N[C@@H](CC(C)C)C(=O)O [formula (5)] (I: H-CRMFPNAPYL-OH / II: H-CYTWNQMNL-OH; disulfide I:1-II:1)	511	200	–
CNKRYFKLSHLQMHSRKH [SEQ ID NO: 23]	> 1000	712	–

— US11759509B2, “WT1 antigen peptide conjugate vaccine” (Sumitomo Pharma Co., Ltd., priority 2013, dated 2023)
